# Results as given in patent US8354430B2, “Monohydrochloride salt of 1-[3-[3-(4-chlorophenyl) propoxy]propyl]-piperidine” (priority 2005, dated 2013).
# What was measured:
# [1] = Stability to oxidation conditions (melting points under nitrogen and oxygen atmosphere); type: physicochemical
# Method: Melting points of the above salts were also determined under nitrogen and oxygen atmosphere, in order to verify their stability to oxidation conditions.
# [2] = Solubility of salts in water at room temperature, pH 4.5 and pH 7.4
# [3] = system: mice; assay: Natural forgetting, two-trial object recognition; type: in vivo, mouse; conditions: tacrine 0.25 mg/kg, i.p. after T1
# Method: Methods: Mice were submitted to the first trial (T1), placed in the box containing two identical objects and the time required by each animal to complete 8 sec of object exploration was determined. Exploration was considered to be directing the nose at a distance closer than 2 cm to the object and/or touching the object. Immediately after the first trial mice were treated with the vehicle or tacrine (0.25 mg/kg, i.p.). […] Mice were placed in the box for 5 min and exploration of each object together with motor activity was determined. The following parameters were measured: […]
# [4] = Aqueous solubility at 23° C.; type: physicochemical; conditions: water
# From the text: The use of 1-[3-[3-(4-chlorophenyl)propoxy]propyl]-piperidine as the free base is limited because of its oily nature.
# [5] = physchem
Molecule,"Melting point, N2 atmosphere (stability to oxidation conditions) [1] [°C]","Melting point, O2 atmosphere (stability to oxidation conditions) [1] [°C]",Solubility (% w/v) pH 4.5 ([2]; pH 4.5) [% w/v],Solubility (% w/v) pH 7.4 ([2]; pH 7.4) [% w/v],Solubility (% w/v) Water room T ([2]; water at room temperature) [% w/v],natural forgetting [3],solubility [4] [mg/mL],"solubility ([5]; pH 4.5, aqueous buffer) [mg/mL]","solubility ([5]; pH 7.4, aqueous buffer) [mg/mL]",solubility ([5]; water) [mg/mL]
Clc1ccc(CCCOCCCN2CCCCC2)cc1 [Hydrogen succinate],63.21,63.46,>100,>100,>100,,,,,
"Nc1c2c(nc3ccccc13)CCCC2 [tacrine, reference compound]",,,,,,significantly reduced,,,,
Hydrogen maleate,90.85,90.74,,,,,,,,
"Clc1ccc(CCCOCCCN2CCCCC2)cc1.O=C(O)C(=O)O [Hydrogen oxalate, 1-[3-[3-(4-chlorophenyl)propoxy]propyl]-piperidine oxalate, reference compound]",149.16,149.28,,,,,25,10 to 30,30 to 100,10 to 30
